Some test systems named below: HCT-116; M14; IGROV-1; SNB-19; UACC-257; 786-0; SF-295; U-251; KM-20L2; SF-539; OVCAR-8; HCT-15; UACC-62; SNB-75; Hs-578T; MCF7; T47D; RXF 393; PC-3; NCI/ADR-RES.
What all share (assay): NCI tumour cell line growth inhibition, 48 h

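Five concentrations, 48 hours, 96-well plates. GI50 = concentration required for 50% inhibition of growth.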 Activity calls are given as the source filed them. Rule as the data show it: active = GI50 up to about 1.1 µM and inactive = higher.

Take `Cc1cc(=O)oc2c(C)c(OCCCOc3ccc4c(C)cc(=O)oc4c3C)ccc12`: the GI50 in the test with HCT-116, with M14, in the test on IGROV-1, with SNB-19, in the test with UACC-257 and in the test on 786-0 was > 100 µM (inactive) throughout. The GI50 with SF-295 is > 100 µM (inactive); in the test on U-251, > 100 µM (inactive); in the test on KM-20L2 it was > 100 µM (inactive); with SF-539 it was > 100 µM (inactive); with OVCAR-8, > 100 µM (inactive); in the test with HCT-15, more than 100 µM. In addition, in the test with UACC-62, the GI50 is > 100 µM (inactive).

Take `O=CC[C@H]1CCc2ccccc2C12CCC(=O)CC2`: the GI50 is 39.3 µM (inactive) in the test with HCT-116; 86.3 µM (inactive) in the test with M14; > 100 µM (inactive) with IGROV-1; 87.7 µM (inactive) in the test on SNB-19; 60.8 µM (inactive) in the test with UACC-257; > 100 µM (inactive) with 786-0. Moreover, the GI50 with SF-295 was > 100 µM (inactive); in the test with KM-20L2, 22.1 µM (inactive); in the test with SF-539, 6.21 µM (inactive); in the test on SNB-75 it was 52.8 µM (inactive); with OVCAR-8, > 100 µM (inactive); with HCT-15, 80.4 µM. The GI50 in the test on UACC-62 was 92 µM (inactive).

For `O=C1c2cccc([N+](=O)[O-])c2C(=O)N1Cc1ccccc1`, the GI50 with HCT-116, in the test with Hs-578T, with M14, in the test with MCF7, with T47D and in the test with IGROV-1 was > 100 µM (inactive) in each case. Besides, the GI50 with RXF 393, in the test with SNB-19, with PC-3, in the test with UACC-257, in the test with 786-0 and in the test with SF-295 was > 100 µM (inactive) in each case. Moreover, the GI50 in the test on U-251 is > 100 µM (inactive); in the test with NCI/ADR-RES, > 100 µM (inactive); in the test with SF-539, > 100 µM (inactive); in the test on SNB-75, > 100 µM (inactive); in the test with OVCAR-8 it was > 100 µM (inactive); in the test on HCT-15, more than 100 µM. Besides, the GI50 in the test on UACC-62 was > 100 µM (inactive).

On to `O=C1CCCCN1C(=O)c1ccc([N+](=O)[O-])cc1`, for which the GI50 with HCT-116, with Hs-578T, in the test with M14, in the test with MCF7, with T47D and in the test on IGROV-1 was > 100 µM (inactive) each time. The GI50 in the test with RXF 393 was > 100 µM (inactive); in the test on SNB-19, > 100 µM (inactive); in the test on PC-3, 44.3 µM (inactive); with UACC-257, > 100 µM (inactive); in the test on 786-0, > 100 µM (inactive); in the test on SF-295, > 100 µM (inactive). Further, the GI50 in the test on U-251 was > 100 µM (inactive); with NCI/ADR-RES, > 100 µM (inactive); in the test with SF-539, > 100 µM (inactive); in the test on SNB-75, > 100 µM (inactive); in the test on OVCAR-8 it was > 100 µM (inactive); in the test on HCT-15, more than 100 µM. In the test with UACC-62, the GI50 was 37.3 µM (inactive).

Regarding `c1ccc2c(c1)N=c1cc3c(cc1N2)=NC12CCCCC1CC1=C(CCCC1)N32` (stereo not drawn), the GI50 in the test with HCT-116 was 3.24 µM (inactive); with Hs-578T it was 3.82 µM (inactive); in the test with M14, 2.52 µM (inactive); in the test on MCF7 it was 3.3 µM (inactive); with T47D it was 3.94 µM (inactive); in the test with IGROV-1, 3.4 µM (inactive). For the same compound, the GI50 in the test with RXF 393 is 1.39 µM (inactive); in the test with SNB-19 it was 5.25 µM (inactive); with PC-3, 2.76 µM (inactive); in the test with UACC-257, 2.03 µM (inactive); in the test on 786-0, 2.89 µM (inactive); with SF-295, 9.04 µM (inactive). The GI50 was 5.16 µM (inactive) in the test on U-251; 4.57 µM (inactive) with NCI/ADR-RES; 3.4 µM (inactive) in the test with SF-539; 2.59 µM (inactive) in the test on SNB-75; 3.21 µM (inactive) in the test on OVCAR-8; 5.82 µM in the test with HCT-15. The GI50 in the test on UACC-62 is 3.32 µM (inactive).
